Test results published in US20140272067A1, “ORGANIC COMPOUNDS” (Givaudan S.A., priority 2011, published 2014).

Tests used:
Assay type in all cases: in vivo
[1] = Taste panel: umami and salt intensity of solution B vs reference solution A (Example 2); conditions: 10 ppm compound in 0.5% NaCl and 0.03% MSG vs same solution without compound; scale -3 (much lower than base) to 3 (much higher than base); average of 4 flavourists
Procedure: Two solutions were prepared: • A a solution of 0.5% NaCl and 0.03% MSG • B a solution of 0.5% NaCl and 0.03% MSG and 10 ppm Example 1 compound
The samples were tasted by a small group of flavourists (2 male, 2 female, aged between 30 and 60). The intensity of the umami and salt taste of solution B was compared with that of the reference (solution A) and rated according to the following intensity scale: • Taste effect much lower than base: −3 • Taste effect lower than base: −2 • Taste effect slightly lower than base: −1 • Taste effect same as base: 0 • Taste effect slightly higher than base: 1 • Taste effect higher than base: 2 • Taste effect much higher than base: 3
The results (average of ratings given by the flavourists) were: […]

[2] = Taste panel: enhancement effect on NaCl, MSG and ribonucleotides taste (Example 3); conditions: 5-10 flavourists
Procedure: Six solutions were prepared: • A a solution of 0.5% NaCl • B a solution of 0.5% NaCl and 0.03% MSG • C a solution of 0.5% NaCl and 0.015% ribonucleotides • D a solution of 0.5% NaCl and 50 ppm Example 1 compound • E a solution of 0.5% NaCl and 0.03% MSG and 50 ppm Example 1 compound • F a solution of 0.5% NaCl and 0.015% ribonucleotides and 50 ppm Example 1 compound
The samples were tasted by a group of 5-10 flavourists aged between 30 and 60. The taste of solution D is compared with that of A to determine the enhancement effect of Example 1 compound on NaCl. Similarly, solution E is compared with solution B and solution F with solution C to determine the enhancement effect of Example 1 compound on MSG and ribonucleotides respectively. The effect is marked between 0 and 10, the greater the value the greater the effect.

[3] = Taste panel: bouillon with compound vs reference bouillon (Example 4); conditions: 200 ppm in bouillon (32 g mix in 1 L boiling water); 4 flavourists
Procedure: A bouillon mix was prepared from 155.0 g of sodium chloride, 157.0 g of dextrose monohydrate (ex Tapioca), 0.2 g of celery oleoresin, 0.3 g of oleoresin turmeric Vegex, 0.2 g of oleoresin coriander seed, 444.8 g maltodextrin 5-8 DE, 40.0 g vegetable oil soya bean refined, 30.0 g yeast standard light, 4.0 g of onion powder, 4.0 g of garlic powder, 0.5 g of white pepper and 164.0 g of potato starch.
32 g of the well-mixed ingredients was added to 1 L of boiling water and stirred until completely dissolved.
A small group of flavourists (2 male, 2 female) compared the taste of the reference bouillon with that of a batch of the same bouillon containing 200 ppm of N-methyl-D-aspartic acid.

With `CNC(CCC(=O)O)C(=O)O` (racemic) [N-methyl-DL-glutamic acid, N-methyl-DL-glutamic Acid] the “Intensity Taste Salt (NaCl)” value [1] was 1.00 and the “Intensity Taste Umami” value [1] was 0.00.

In the case of `CN[C@H](CC(=O)O)C(=O)O` [N-methyl-D-aspartic acid, N-methyl-D-aspartic Acid], the “Intensity Taste Salt (NaCl)” value [1] is reported as 0.50, the “Intensity Taste Umami” value [1] is reported as 0.50 and the “NaCl Taste” value ([2]; 50 ppm compound in 0.5% NaCl (solution D) vs solution A (reference 0.0), marked 0 to 10, the greater the value the greater the effect) is reported as 0.7. For the same compound, the Ribo taste ([2]; 50 ppm compound in 0.5% NaCl and 0.015% ribonucleotides (solution F) vs solution C (reference 5.0), marked 0 to 10) was 6.3, the MSG taste ([2]; 50 ppm compound in 0.5% NaCl and 0.03% MSG (solution E) vs solution B (reference 5.0), marked 0 to 10) was 5.3 and the “Salivating effect of test bouillon vs reference bouillon” value [3] was “slightly more salivating”. For the same compound, the “Umami taste of test bouillon vs reference bouillon” value [3] was “slightly more umami”.
